Key:
[1] = target: Protein cereblon/Phosphatidylinositol 4,5-bisphosphate 3-kinase catalytic subunit gamma isoform (Homo sapiens, UniProt P48736+Q96SW2); test: PROTAC activity at CRBN/p110gamma (unknown origin) in Acute myeloid leukemic cell; format: cell-based
SU-DHL-6 [2] = test: Induction of apoptosis in human SU-DHL-6 cells assessed as viable cells at 1 uM incubated for 24 hrs by Annexin V-FITC/PI staining based flow cytometric analysis (reference value: 92.54 %); format: functional; settings: read-out: Activity
SU-DHL-6 [3] = test: Induction of apoptosis in human SU-DHL-6 cells assessed as early apoptotic cells at 10 uM incubated for 24 hrs by Annexin V-FITC/PI staining based flow cytometric analysis (reference value: 2.32 %); format: functional
[4] = target: T1, Phosphatidylinositol 4,5-bisphosphate 3-kinase catalytic subunit delta isoform (Homo sapiens) (UniProt O00329); settings: dose 100.0 nM, time 90.0 min
T1 sequence (whole entry): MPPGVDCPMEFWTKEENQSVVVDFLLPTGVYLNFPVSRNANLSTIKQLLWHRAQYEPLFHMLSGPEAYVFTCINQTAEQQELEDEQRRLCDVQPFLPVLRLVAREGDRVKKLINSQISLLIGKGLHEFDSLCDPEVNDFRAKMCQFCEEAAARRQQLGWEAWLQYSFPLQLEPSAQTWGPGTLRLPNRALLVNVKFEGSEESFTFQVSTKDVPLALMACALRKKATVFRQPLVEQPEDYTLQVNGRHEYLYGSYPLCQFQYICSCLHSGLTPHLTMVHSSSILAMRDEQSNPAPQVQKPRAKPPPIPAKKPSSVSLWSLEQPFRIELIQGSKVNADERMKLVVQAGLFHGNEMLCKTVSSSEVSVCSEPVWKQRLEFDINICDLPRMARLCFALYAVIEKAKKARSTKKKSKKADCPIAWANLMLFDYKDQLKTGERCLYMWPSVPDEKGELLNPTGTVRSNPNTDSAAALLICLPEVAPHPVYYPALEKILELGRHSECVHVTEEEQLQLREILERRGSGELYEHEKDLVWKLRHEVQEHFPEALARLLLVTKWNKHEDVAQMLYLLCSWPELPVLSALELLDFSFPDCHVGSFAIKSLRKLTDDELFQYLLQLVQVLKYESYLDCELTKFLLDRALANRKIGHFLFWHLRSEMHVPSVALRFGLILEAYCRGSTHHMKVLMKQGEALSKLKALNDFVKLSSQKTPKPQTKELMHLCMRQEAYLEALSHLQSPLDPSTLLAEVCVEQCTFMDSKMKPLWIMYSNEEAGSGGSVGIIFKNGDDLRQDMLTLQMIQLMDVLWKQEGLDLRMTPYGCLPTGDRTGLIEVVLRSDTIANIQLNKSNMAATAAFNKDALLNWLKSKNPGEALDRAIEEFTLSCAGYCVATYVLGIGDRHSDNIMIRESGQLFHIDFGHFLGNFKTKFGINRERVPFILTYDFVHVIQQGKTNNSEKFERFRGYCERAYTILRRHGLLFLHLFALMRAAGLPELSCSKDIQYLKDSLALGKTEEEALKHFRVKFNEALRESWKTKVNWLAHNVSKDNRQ

SU-DHL-6 [5] = test: Induction of apoptosis in human SU-DHL-6 cells assessed as early apoptotic cells at 1 uM incubated for 24 hrs by Annexin V-FITC/PI staining based flow cytometric analysis (reference value: 2.32 %); format: functional
SU-DHL-6 [6] = test: Induction of apoptosis in human SU-DHL-6 cells assessed as late apoptotic cells at 1 uM incubated for 24 hrs by Annexin V-FITC/PI staining based flow cytometric analysis (reference value: 4.75 %); format: functional
SU-DHL-6 [7] = test: Induction of apoptosis in human SU-DHL-6 cells assessed as necrotic cells at 10 uM incubated for 24 hrs by Annexin V-FITC/PI staining based flow cytometric analysis (reference value: 0.39 %); format: functional
SU-DHL-6 [8] = test: Antiproliferative activity against human SU-DHL-6 cells assessed as cell growth inhibition incubated for 72 hrs by MTT assay; format: functional
SU-DHL-6 [9] = test: Antitumor activity against human SU-DHL-6 cells xenografted in male nude mouse model assessed as tumor growth inhibition at 2 mg/kg, ip administered for 21 days relative to control; format: functional; settings: SU-DHL-6, 504 h, time 21 day, read-out: TGI
SU-DHL-6 [10] = test: Induction of apoptosis in human SU-DHL-6 cells assessed as viable cells at 10 uM incubated for 24 hrs by Annexin V-FITC/PI staining based flow cytometric analysis (reference value: 92.54 %); format: functional; settings: read-out: Activity
SU-DHL-6 [11] = test: Induction of apoptosis in human SU-DHL-6 cells assessed as necrotic cells at 1 uM incubated for 24 hrs by Annexin V-FITC/PI staining based flow cytometric analysis (reference value: 0.39 %); format: functional
SU-DHL-6 [12] = test: Induction of apoptosis in human SU-DHL-6 cells assessed as late apoptotic cells at 10 uM incubated for 24 hrs by Annexin V-FITC/PI staining based flow cytometric analysis (reference value: 4.75 %); format: functional
Pfeiffer = test: Antiproliferative activity against human Pfeiffer cells assessed as cell growth inhibition incubated for 72 hrs by MTT assay; format: functional

Protein cereblon/Phosphatidylinositol 4,5-bisphosphate 3-kinase catalytic subunit gamma isoform, sequence (P48736 whole entry, canonical isoform): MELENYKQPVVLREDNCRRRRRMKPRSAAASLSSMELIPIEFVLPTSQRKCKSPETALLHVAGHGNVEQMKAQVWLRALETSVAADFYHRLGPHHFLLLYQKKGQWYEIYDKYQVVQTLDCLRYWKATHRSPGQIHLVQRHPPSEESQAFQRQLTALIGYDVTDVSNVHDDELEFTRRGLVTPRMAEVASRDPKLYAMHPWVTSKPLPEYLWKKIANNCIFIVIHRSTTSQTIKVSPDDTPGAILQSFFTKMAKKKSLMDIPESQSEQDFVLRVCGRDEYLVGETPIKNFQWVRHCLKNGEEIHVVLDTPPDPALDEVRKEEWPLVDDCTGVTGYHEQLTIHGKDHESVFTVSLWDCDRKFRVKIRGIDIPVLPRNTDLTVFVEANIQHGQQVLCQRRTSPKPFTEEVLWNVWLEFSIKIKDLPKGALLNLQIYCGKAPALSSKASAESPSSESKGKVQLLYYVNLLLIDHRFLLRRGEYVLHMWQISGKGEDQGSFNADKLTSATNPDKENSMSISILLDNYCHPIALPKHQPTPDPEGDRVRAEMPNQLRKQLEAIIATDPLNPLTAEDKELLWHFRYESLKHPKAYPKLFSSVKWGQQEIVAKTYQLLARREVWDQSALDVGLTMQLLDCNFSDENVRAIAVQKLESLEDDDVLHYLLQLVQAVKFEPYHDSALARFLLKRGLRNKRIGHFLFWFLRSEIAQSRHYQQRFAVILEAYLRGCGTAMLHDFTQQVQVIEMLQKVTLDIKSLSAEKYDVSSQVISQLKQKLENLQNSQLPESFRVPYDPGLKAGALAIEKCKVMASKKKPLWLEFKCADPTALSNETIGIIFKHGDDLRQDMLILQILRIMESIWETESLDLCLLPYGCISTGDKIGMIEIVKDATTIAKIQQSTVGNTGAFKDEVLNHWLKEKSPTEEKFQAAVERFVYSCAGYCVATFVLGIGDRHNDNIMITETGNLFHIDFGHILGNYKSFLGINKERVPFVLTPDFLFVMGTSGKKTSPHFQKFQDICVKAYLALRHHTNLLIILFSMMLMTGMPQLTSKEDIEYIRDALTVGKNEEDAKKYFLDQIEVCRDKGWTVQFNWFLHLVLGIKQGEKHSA
Protein cereblon/Phosphatidylinositol 4,5-bisphosphate 3-kinase catalytic subunit gamma isoform, sequence (Q96SW2 whole entry, canonical isoform): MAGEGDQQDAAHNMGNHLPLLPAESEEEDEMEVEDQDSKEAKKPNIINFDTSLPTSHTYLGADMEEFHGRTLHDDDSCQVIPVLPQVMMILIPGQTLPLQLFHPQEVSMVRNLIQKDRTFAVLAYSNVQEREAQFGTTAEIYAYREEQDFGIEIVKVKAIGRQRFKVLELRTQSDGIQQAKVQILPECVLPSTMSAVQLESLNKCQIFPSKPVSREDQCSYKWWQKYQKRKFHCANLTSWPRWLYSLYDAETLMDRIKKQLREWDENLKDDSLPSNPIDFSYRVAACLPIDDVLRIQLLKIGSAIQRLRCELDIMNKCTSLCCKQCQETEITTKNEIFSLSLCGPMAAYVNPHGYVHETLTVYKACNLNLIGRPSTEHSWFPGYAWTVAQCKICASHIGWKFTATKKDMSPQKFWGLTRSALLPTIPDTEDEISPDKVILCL

DC50 [1] [nM]	inhibition [4] [%]	GI50 (SU-DHL-6 [8]) [nM]	Compound	viability at 1 µM (SU-DHL-6 [2]) [%]	Activity (SU-DHL-6 [3]) [%]	Activity (SU-DHL-6 [5]) [%]	Activity (SU-DHL-6 [6]) [%]	Activity (SU-DHL-6 [7]) [%]	inhibition in vivo at 2 mg/kg (SU-DHL-6 [9]) [%]	viability at 10 µM (SU-DHL-6 [10]) [%]	Activity (SU-DHL-6 [11]) [%]	Activity (SU-DHL-6 [12]) [%]	GI50 (Pfeiffer) [nM]
> 100			Cc1cc(-c2sc(NC(=O)CCCC(=O)NCCCCCCCC(=O)Nc3cccc4c3C(=O)N(C3CCC(=O)NC3=O)C4=O)nc2C)cc2c1C(=O)N([C@H](C)C1CC1)C2 (stereo partly drawn)										
	81	250	CC[C@H](Nc1ncnc2[nH]cnc12)c1nc2cccc(F)c2c(=O)n1-c1ccccc1 [IDELALISIB]	91.7	8.2	3.25	4.89	0.13	36.3	80.1	0.18	11.55	8550
